Reference: ChEMBL document CHEMBL5634091, “Cantharidin analogue alleviates dextran sulfate sodium-induced colitis in mice by inhibiting the activation of NF-κB signaling” (Eur J Med Chem, 2023)
Calls of active or inactive are those of the source. The rule behind the calls is not given here.

Key:
[1] = Selectivity index, ratio of CC50 for cytotoxicity against LPS/IFNgamma induced mouse RAW264.7 cells to IC50 for antiinflammatory activity in mouse RAW264.7 cells assessed as inhibition in LPS/IFNgamma-induced NO production; type: toxicity, cell-based; conditions: RAW264.7 cells induced with LPS/IFNgamma, read-out: Ratio IC50
[2] = Cytotoxicity against TNF-alpha induced HEK293T cells assessed as inhibition of cell growth preincubated for 24 hrs followed by TNFalpha stimulation and measured after 4 hrs by SRB assay; type: toxicity, cell-based, HEK-293T; conditions: human, HEK293T cells induced with TNF-alpha; time 28 hrs
[3] = Toxicity in Kunming mouse assessed as increase in body weight at 400 mg/kg, po measured for 15 days (reference value: 12.38%); type: organism-based; conditions: in vivo, 360 h, time 15 day
[4] = Toxicity in Kunming mouse assessed as increase in body weight at 1111 mg/kg, po measured for 15 days (reference value: 12.38%); type: organism-based; conditions: in vivo, 360 h, time 15 day
DLD-1 [5] = test: Inhibition of TNF-alpha induced NF-kB activation in human DLD-1 cells assessed as decrease in phosphorylated p65 protein expression preincubated for 4 hrs and followed TNF-alpha stimulation and measured after 10 mins by Western blot analysis; type: cell-based; conditions: dose 12.5-50 µM, time 250.0 min
HCT-116 [6] = test: Inhibition of TNF-alpha induced NF-kB activation in human HCT-116 cells assessed as decrease in phosphorylated IKK protein expression preincubated for 4 hrs and followed TNF-alpha stimulation and measured after 10 mins by Western blot analysis; type: cell-based; conditions: dose 12.5-50 µM, time 250.0 min
HCT-116 [7] = test: Effect on IKK protein expression in TNF-alpha stimulated human HCT-116 cells at 12.5 to 50 uM preincubated for 4 hrs and followed TNF-alpha stimulation and measured after 10 mins by Western blot analysis; type: functional, cell-based; conditions: dose 12.5-50 µM, time 250.0 min
DLD-1 [8] = test: Effect on NF-kappaB p65 protein expression in TNF-alpha stimulated human DLD-1 cells at 12.5 to 50 uM preincubated for 4 hrs and followed TNF-alpha stimulation and measured after 10 mins by Western blot analysis; type: functional, cell-based; conditions: dose 12.5-50 µM, time 250.0 min
[9] = biological target: T1, NF-kappa-B inhibitor alpha (Homo sapiens) (UniProt P25963); test: Inhibition of proteasomal degradation of IkappaBalpha in TNF-alpha induced human HCT-116 cells assessed as increase in IkappaBalpha protein expression at 12.5 to 50 uM preincubated for 4 hrs and followed TNF-alpha stimulation and measured after 10 mins by Western blot analysis; type: cell-based; conditions: dose 12.5-50 µM, time 250.0 min
T1 sequence (whole entry): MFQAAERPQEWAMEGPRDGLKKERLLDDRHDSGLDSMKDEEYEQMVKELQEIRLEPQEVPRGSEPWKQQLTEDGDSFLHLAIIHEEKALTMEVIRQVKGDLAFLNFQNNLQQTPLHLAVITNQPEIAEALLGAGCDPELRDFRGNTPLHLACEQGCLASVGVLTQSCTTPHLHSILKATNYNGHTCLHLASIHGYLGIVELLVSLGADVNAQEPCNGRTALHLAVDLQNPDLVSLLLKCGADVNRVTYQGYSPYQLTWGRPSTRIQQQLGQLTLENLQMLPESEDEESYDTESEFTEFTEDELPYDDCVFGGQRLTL

DLD-1 [10] = test: Inhibition of TNF-alpha induced activation of MAPK signaling pathway in human DLD-1 cells assessed as change in phosphorylated p38 level at 6.25 to 50 uM preincubated for 4 hrs and followed TNF-alpha stimulation and measured after 10 mins by Western blot analysis; type: cell-based; conditions: dose 6.25-50 µM, time 250.0 min
HCT-116 [11] = test: Effect on p38 protein expression in TNF-alpha stimulated human HCT-116 cells at 6.25 to 50 uM preincubated for 4 hrs and followed TNF-alpha stimulation and measured after 10 mins by Western blot analysis; type: functional, cell-based; conditions: dose 6.25-50 µM, time 250.0 min
DLD-1 [12] = test: Effect on p38 protein expression in TNF-alpha stimulated human DLD-1 cells at 6.25 to 50 uM preincubated for 4 hrs and followed TNF-alpha stimulation and measured after 10 mins by Western blot analysis; type: functional, cell-based; conditions: dose 6.25-50 µM, time 250.0 min
HCT-116 [13] = test: Upregulation of ERK protein expression in TNF-alpha stimulated human HCT-116 cells at 50 uM preincubated for 4 hrs and followed TNF-alpha stimulation and measured after 10 mins by Western blot analysis; type: functional, cell-based; conditions: time 250.0 min
HCT-116 [14] = test: Activation of MAPK signaling pathway in TNF-alpha stimulated human HCT-116 cells assessed as increase in phospho-JNK protein expression at 50 uM preincubated for 4 hrs and followed TNF-alpha stimulation and measured after 10 mins by Western blot analysis; type: cell-based; conditions: filed as activator, time 250.0 min
HCT-116 [15] = test: Inhibition of TNF-alpha induced MAPK signaling pathway activation in human HCT-116 cells assessed as decrease in phospho-JNK protein expression at 6.25 uM preincubated for 4 hrs and followed TNF-alpha stimulation and measured after 10 mins by Western blot analysis; type: cell-based; conditions: time 250.0 min
DLD-1 [16] = test: Inhibition of TNF-alpha induced MAPK signaling pathway activation in human DLD-1 cells assessed as decrease in phospho-JNK protein expression at 12.5 uM preincubated for 4 hrs and followed TNF-alpha stimulation and measured after 10 mins by Western blot analysis; type: cell-based; conditions: time 250.0 min
Mus musculus [17] = test: Anti-inflammatory activity in C57BL/6 mouse model of DSS-induced acute ulcerative colitis assessed as reduction in hyperemia at 100 to 300 mg/kg, po administered once a day for 7 days by H and E staining based analysis; type: functional, organism-based; conditions: dose 100-300 mg/kg, time 7.0 day
Mus musculus [18] = test: Anti-inflammatory activity in po dosed C57BL/6 mouse model of DSS-induced acute ulcerative colitis assessed as reduction in IL-6 mRNA expression in colon administered once a day for 7 days by RT-PCR analysis; type: functional, organism-based; conditions: dose 100-300 mg/kg, time 7.0 day
Mus musculus [19] = test: Anti-inflammatory activity in po dosed C57BL/6 mouse model of DSS-induced acute ulcerative colitis assessed as reduction in IFN-gamma mRNA expression in colon administered once a day for 7 days by RT-PCR analysis; type: functional, organism-based; conditions: dose 100-300 mg/kg, time 7.0 day
Mus musculus [20] = test: Anti-inflammatory activity in po dosed C57BL/6 mouse model of DSS-induced acute ulcerative colitis assessed as reduction in IL-17A mRNA expression in colon administered once a day for 7 days by RT-PCR analysis; type: functional, organism-based; conditions: dose 100-300 mg/kg, time 7.0 day
[21] = Toxicity in C57BL/6 mouse model of DSS-induced acute ulcerative colitis assessed as effect on heart tissue at 100 to 300 mg/kg, po administered once a day for 7 days by H and E staining based analysis; type: organism-based; conditions: in vivo, 168 h, dose 100-300 mg/kg, time 7 day
[22] = Toxicity in C57BL/6 mouse model of DSS-induced acute ulcerative colitis assessed as effect on stomach at 100 to 300 mg/kg, po administered once a day for 7 days by H and E staining based analysis; type: organism-based; conditions: in vivo, 168 h, dose 100-300 mg/kg, time 7 day
DLD-1 [23] = test: Cytotoxicity against human DLD-1 cells assessed as induction of stress response at 50 uM; type: toxicity, cell-based; conditions: dld-1, 50 µM
Mus musculus [24] = test: Anti-inflammatory activity in C57BL/6 mouse model of DSS-induced acute ulcerative colitis assessed as reduction in tissue lesions at 100 to 300 mg/kg, po administered once a day for 7 days by H and E staining based analysis; type: functional, organism-based; conditions: dose 100-300 mg/kg, time 7.0 day
[25] = Toxicity in Kunming mouse assessed as number of mouse survived at 400 mg/kg, po measured for 15 days; type: organism-based; conditions: in vivo, 360 h, time 15 day
[26] = Toxicity in Kunming mouse assessed as number of mouse survived at 1852 mg/kg, po measured for 15 days; type: organism-based; conditions: in vivo, 360 h, time 15 day

With COC(=O)C1=C(C(=O)OC)C2OC1CC2C#Cc1ccc(C)cc1 (stereo unspecified) the selectivity ratio [1] was 4.57, the CC50 at 4 h [2] was 94.3 µM and the Activity [3] was 13.21%. The Activity [4] was 6.01%, the inhibition (DLD-1 [5]) was “Dose-Dependent Effect” and the inhibition (HCT-116 [6]) was “Dose-Dependent Effect”. For the same compound, the Activity (HCT-116 [7]) was “inactive”, the Activity (DLD-1 [8]) was “inactive” and the inhibition [9] was “Active”. The inhibition (DLD-1 [10]) was “inactive”, the Activity (HCT-116 [11]) was “inactive” and the Activity (DLD-1 [12]) was “inactive”. The Activity (HCT-116 [13]) was “Active”, the Activity (HCT-116 [14]) was “Active” and the inhibition (HCT-116 [15]) was “Active”. For the same compound, the inhibition (DLD-1 [16]) was “Active”, the Activity (Mus musculus [17]) was “Active” and the Activity (Mus musculus [18]) was “Dose-Dependent Effect”. The Activity (Mus musculus [19]) was “Dose-Dependent Effect”, the Activity (Mus musculus [20]) was “Dose-Dependent Effect” and the Activity [21] was “Non-Toxic”. For the same compound, the Activity [22] was “Non-Toxic”, the Activity (DLD-1 [23]) was “Toxic” and the Activity (Mus musculus [24]) was “Active”. The Activity [25] was 0 and the Activity [26] was 0.
